Reference: paper PMC9161616, “A first-in-human phase 1/2 study of FGF401 and combination of FGF401 with spartalizumab in patients with hepatocellular carcinoma or biomarker-selected solid tumors” (Journal of Experimental & Clinical Cancer Research : CR, 2022)

Columns and labels:
[1] = test system: HCC and gastric cancer cell lines expressing FGFR4, KLB and FGF19; conditions: excellent selectivity over non-sensitive tumor models; cited from earlier work
phospho-FGFR4 = conditions: preclinical; read-out: in vivo phospho-FGFR4 IC90; cited from earlier work
[2] = test system: patients with HCC or other solid malignancies
Protocol: FGF401 was administered per oral under fasted condition or with low-fat meal on a continuous once daily (qd) regimen for both FGF401 single agent and in combination with spartalizumab. A 300-mg intravenous infusion of spartalizumab was administered once every three weeks (q3w) and 1 treatment cycle was defined as 21 days. The study treatment was administered until the patient experienced unacceptable toxicity, progressive disease and/or the treatment was discontinued at investigator’s discretion or patient’s withdrawal of consent. Figure 1 summarizes the study design and visit flow.
The secondary endpoints characterizing safety, efficacy, pharmacokinetics (PK), immunogenicity, and food effect properties of the FGF401 and the combination were based on the assessments on their respectively defined population sets. Adverse events (AEs) that emerged during treatment were monitored throughout the study until 30 days after discontinuation of the single agent and 150 days after discontinuation of the combination. Adverse events were coded using the Medical Dictionary for Regulatory Activities (MedDRA) and assessed as per Common Terminology Criteria for Adverse Events (CTCAE) version 4.03. The clinical laboratory assessments were collected no later than 30 days after the last date of study treatment administration. The grades were classified as low/normal/high when not defined by CTCAE v4.03. Other assessments of vital signs, physical examinations, and electrocardiogram (ECG) parameters were also performed.
Safety analyses conducted in the safety set constituted summaries for AEs occurring during on-treatment period with number and percentage of patients having at least 1 AE. Summaries presented overview of AEs and deaths (number and percentage of patients who died with any AE, SAE, dose reductions/interruptions, AE leading to discontinuation), SAEs, AEs related to study treatment, AEs leading to treatment discontinuation, dose interruption/adjustment or fatal outcome. Additionally, in combination part, summaries were produced using all treatment-related AEs starting or worsening during the on-treatment or extended safety follow-up periods (within 150 days after the date of last administration of study treatment).

[3] = single agent, All patients N = 160

## COCCNc1cc(NC(=O)N2CCCc3cc(CN4CCN(C)CC4=O)c(C=O)nc32)ncc1C#N [FGF401, roblitinib]
[1]
  growth of cell lines: inhibits growth
phospho-FGFR4
  IC90: 52.1 nM
[2]; 17 patients of 160
  patients who died on treatment because of existing cancer: 10.6%
[2]; 130 of 160 patients
  discontinued treatment because of progressive disease: 81%
[2]; Twenty patients of 160
  patients who died on treatment: 12.5%
[2]; gastric bleeding, multiple organ dysfunction syndrome, unknown cause
  patients who died on treatment because of other reasons: 3 patients
[2]; human, in vivo
  AEs leading to FGF401 discontinuation, All grades: 18 (11.3) n (%)
  AEs leading to FGF401 discontinuation, Grade 3 or 4: 13 (8.1) n (%)
  AEs leading to FGF401 discontinuation, Treatment related, All grades: 12 (7.5) n (%)
  AEs leading to FGF401 discontinuation, Treatment related, Grade 3 or 4: 8 (5.0) n (%)
  AEs leading to FGF401 dose adjustment/interruption, All grades: 80 (50.0) n (%)
  AEs leading to FGF401 dose adjustment/interruption, Grade 3 or 4: 58 (36.3) n (%)
  AEs leading to FGF401 dose adjustment/interruption, Treatment related, All grades: 47 (29.4) n (%)
  AEs leading to FGF401 dose adjustment/interruption, Treatment related, Grade 3 or 4: 34 (21.3) n (%)
  ALT increased leading to FGF401 discontinuation: 3.8%
  AST increased leading to FGF401 discontinuation: 1.9%
  Constipation, Grade 3/4: 0 n (%)
  Decreased appetite, Grade 3/4: 0 n (%)
  Edema peripheral, Grade 3/4: 0 n (%)
  Grade 3 or 4 AEs suspected to be related to study treatment: 31.9%
  Grade 3 or 4 related ALT elevated: 15.0%
  Grade 3 or 4 related AST increased: 18.8%
  Grade 3 or 4 related diarrhea: 5.0%
  Nausea, Grade 3/4: 0 n (%)
  Primary reason for end of treatment: Adverse event: 18 (11.3) n (%)
  Pyrexia, Grade 3/4: 0 n (%)
  SAEs, Treatment related, Grade 3 or 4: 7 (4.4) n (%)
  blood bilirubin increased leading to FGF401 discontinuation: 2.5%
  dose interruption due to AEs: 52.5%
  dose reduction due to AEs: 18.1%
  patients with a grade 3 or 4 AE: 72.5%
  patients with diarrhea: 73.8%
  patients with dose interruption: 60.6%
  patients with dose reduction: 21.3%
  patients with increased ALT: 43.8%
  patients with increased AST: 47.5%
[2]; single agent N=160
  Primary reason for end of treatment: Death: 2 (1.3) n (%)
  Primary reason for end of treatment: Progressive disease: 130 (81.3) n (%)
[2]; [3]
  AEs, All grades: 160 (100) n (%)
  AEs, Grade 3 or 4: 116 (72.5) n (%)
  AEs, Treatment related, All grades: 148 (92.5) n (%)
  AEs, Treatment related, Grade 3 or 4: 51 (31.9) n (%)
  Fatal SAEs, All grades: 3 (1.9) n (%)
  Fatal SAEs, Grade 3 or 4: 3 (1.9) n (%)
  Fatal SAEs, Treatment related, All grades: 0 n (%)
  Fatal SAEs, Treatment related, Grade 3 or 4: 0 n (%)
  SAEs, All grades: 70 (43.8) n (%)
  SAEs, Grade 3 or 4: 55 (34.4) n (%)
  SAEs, Treatment related, All grades: 8 (5.0) n (%)
